According to paper PMC9270327 (Communications Biology, 2022):
Structures can show the parent of a compound that is named as a salt. Where two headings read alike, the source gives them in different places.

System: SARS-CoV-2 Wuhan-Hu-1 D614G, Caco-2 cells
Format: cell-based
Conditions: for IC50: Caco-2 cells; for SARS-CoV-2 infection, Mean (0 nM = 100): Fig. 6b, D614G isolate
[1] = in-cell ELISA 2 days post infection

Molecule | IC50 (2 days post infection) | IC50 [1] | SARS-CoV-2 infection, Mean (0 nM = 100) (compound 32 nM) | SARS-CoV-2 infection, Mean (0 nM = 100) (compound 160 nM) | SARS-CoV-2 infection, Mean (0 nM = 100) (compound 800 nM) | SARS-CoV-2 infection, Mean (0 nM = 100) (compound 4000 nM) | SARS-CoV-2 infection, Mean (0 nM = 100) (compound 20000 nM) | SARS-CoV-2 infection, Mean (0 nM = 100) (compound 100000 nM)
CN(C)C(=O)COC(=O)Cc1ccc(OC(=O)c2ccc(NC(=N)N)cc2)cc1 [CM, camostat mesylate, reference compound] | 26.7 µM | 26.7 µM | 93.4834 | 88.1889 | 88.3001 | 93.3101 | 68.3858 | 1.574
ace-Arg-Pro-Arg-kbt [Compound 2] | 17.1 µM | 17.1 µM | 95.739 | 98.0747 | 97.5395 | 101.461 | 23.4531 | 0.121
